Data from patent US9402821B2, “Methods and pharmaceutical compositions for treatment of cystic fibrosis” (INSERM (Institut National de la sante et de la Recherche …, priority 2012, dated 2016).
“Also recorded” adds a separate entry of the source. Where two headings read alike, the source gives them in different places.

How the values were obtained:
[1] = system: NF-κB transcriptional activity; assay: NF-κB firefly luciferase reporter assay, TNFα-stimulated cells; assay type: cell-based; details: TNFα 10 ng/ml
Protocol: All cells were transiently transfected by NF-κB firefly luciferase reporter and renilla luciferase reference. A. HeLa control cells (Ctr) were pre-treated with diluent (0.5%) or different doses of sulindac for 1 h and stimulated for 1 h with 10 ng/ml TNFα. After removal of TNFα, cells were incubated for 4 h with sulindac. Luciferase activity was analysed in protein extract. The NF-κB transcriptional activity in cells treated with sulindac+TNFα was expressed in percent of diluent+TNFα. B. Hela cells Wt, DF508 and Ctr were pre-treated with diluent (0.5%), ibuprofen (500 μM) or sulindac (500 μM) for 1 h and stimulated for 1 h with […] TNFα. After removal of TNFα, cells were incubated for 4 h with pharmacological treatment. The NF-κB transcriptional activity in cells treated with ibuprofen+TNFα and sulindac+TNFα was expressed in percent of diluent+TNFα. Results of at least three independent experiments, means±SEM. Unilateral paired t test: * p<0.02
All cells were pre-treated with diluent (0.5%), sulindac ([…]) or sulindac sulfone (250 μM) for 1 h and stimulated for 1 h with 10 ng/ml TNFα. […]
Plasmid Constructs and Transient Transfection To assay the transcriptional activity of NF-κB, pNF-κBLuc, a luciferase reporter plasmid containing five sequential NF-κB binding sites upstream of a minimum promoter element, NF-κB-Luc (Stratagene), was used. Transcriptional activity of the IL-8 promoter was evaluated with reporter constructs consisting of the IL-8 promoter (−133 bp from the transcription start site) fused to the Luciferase gene, kindly provided by Naofumi Mukaida. […]
(§1) Cells were lysed with the Passive Lysis Buffer (Promega), and luciferase activity in the cellular extracts was determined by the Dual Luciferase Assay System (Promega) using a luminometer (Tristar; Berthold). The results were normalized to those obtained with the Renilla luciferase reference plasmid used to control the transfection efficiency, and the values were expressed as luminescence intensity (Luciferase/Renilla). […]
The transcriptional activity of NF-κB and IL-8 promoter was measured as described before. […]

[2] = system: NF-κB transcriptional activity; details: CF cells; recent study [5]; cited from earlier work
[3] = system: IL-8 production; details: CF cells; recent study [5]; cited from earlier work
[4] = target: CFTR (Homo sapiens, UniProt P13569); assay: CFTR maturation by Western blot of membrane extracts; assay type: cell-based; parameters: expressed in transfected cells; details: 500 μM
CFTR, sequence (P13569 whole entry): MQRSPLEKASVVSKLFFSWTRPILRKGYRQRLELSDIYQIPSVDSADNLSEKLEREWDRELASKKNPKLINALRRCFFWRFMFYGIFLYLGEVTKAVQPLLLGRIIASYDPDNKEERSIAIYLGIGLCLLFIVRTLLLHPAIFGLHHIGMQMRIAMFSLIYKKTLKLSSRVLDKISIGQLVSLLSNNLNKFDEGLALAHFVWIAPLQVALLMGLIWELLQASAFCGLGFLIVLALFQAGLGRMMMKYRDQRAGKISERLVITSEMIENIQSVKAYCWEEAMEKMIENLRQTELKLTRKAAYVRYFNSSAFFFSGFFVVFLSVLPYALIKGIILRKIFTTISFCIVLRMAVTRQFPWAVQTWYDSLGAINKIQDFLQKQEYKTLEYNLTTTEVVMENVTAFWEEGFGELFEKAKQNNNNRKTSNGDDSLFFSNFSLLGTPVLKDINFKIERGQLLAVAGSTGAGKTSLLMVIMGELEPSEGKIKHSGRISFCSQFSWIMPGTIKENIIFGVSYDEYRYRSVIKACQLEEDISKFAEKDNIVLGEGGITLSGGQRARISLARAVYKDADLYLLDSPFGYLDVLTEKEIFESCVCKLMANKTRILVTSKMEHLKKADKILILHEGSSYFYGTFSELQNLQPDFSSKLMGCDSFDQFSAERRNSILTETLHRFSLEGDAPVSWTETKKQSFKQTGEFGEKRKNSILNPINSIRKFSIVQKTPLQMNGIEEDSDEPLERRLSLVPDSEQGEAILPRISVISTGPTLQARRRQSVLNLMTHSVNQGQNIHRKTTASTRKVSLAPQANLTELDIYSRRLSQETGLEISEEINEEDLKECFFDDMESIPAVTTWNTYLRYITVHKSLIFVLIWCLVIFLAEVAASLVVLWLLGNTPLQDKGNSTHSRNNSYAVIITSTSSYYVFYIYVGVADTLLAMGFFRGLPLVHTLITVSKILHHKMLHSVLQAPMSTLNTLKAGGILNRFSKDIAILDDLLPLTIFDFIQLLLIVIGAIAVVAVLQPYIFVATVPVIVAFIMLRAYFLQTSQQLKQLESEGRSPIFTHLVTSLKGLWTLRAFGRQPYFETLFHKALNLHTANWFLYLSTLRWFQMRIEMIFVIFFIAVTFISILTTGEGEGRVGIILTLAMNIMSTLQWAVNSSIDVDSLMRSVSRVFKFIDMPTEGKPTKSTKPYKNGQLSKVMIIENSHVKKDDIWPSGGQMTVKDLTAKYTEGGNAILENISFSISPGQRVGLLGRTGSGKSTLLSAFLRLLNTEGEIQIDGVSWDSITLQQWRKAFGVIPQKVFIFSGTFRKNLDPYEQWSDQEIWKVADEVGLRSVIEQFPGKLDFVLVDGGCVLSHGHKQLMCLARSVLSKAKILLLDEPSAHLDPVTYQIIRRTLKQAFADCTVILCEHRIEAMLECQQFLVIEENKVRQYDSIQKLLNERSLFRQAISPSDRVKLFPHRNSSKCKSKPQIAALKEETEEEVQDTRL
Protocol: B. Chloride activity in HeLa Wt cells was measured by MQAE assay, after 3 h of treatment by NSAID (500 μM) or diluent. CFTR activity was expressed in rate of UFA/sec, calculated by difference between ((Ft−F0)/t) with CFTR induction and ((Ft−F0)/t) without CFTR induction. […] C. Primary culture of human nasal epithelial cell (HNEC) grown on Snapwell filters (air-liquid interface) were exposed basolaterally to sulindac (500 μM) or vehicle for 2 h and immediately mounted into a voltage-clamp system to bioelectric measurements. Short circuit current was measured with addition of amiloride to evaluated amiloride sensitive transport or with forskolin and IBMX for induced cAMP-dependent Cl secretion.
To study the CFTR protein present at the cell membrane, a protocol of purification by differential centrifugations was used. CFTR wt and delta F508 HeLa cells (2×10^5 cells/cm^2) were lysed with hypotonic lysis buffer (10 mM de KCl, 1 mM de MgCl2, 10 mM Hepes pH 7, 4 and protease inhibitor). Mechanic lysis of cells was realized with minimum 10 strokes of a 26G syringe. Samples were centrifuged 10 min at 3000 g to eliminate cellular fragments and nuclear fraction in the pellet. Then supernatant was centrifuged 45 min at 50 000 g. The pellets with cellular membrane were resolubilized in RIPA buffer.
Aliquots of membrane cell extracts (30 μg protein) were separated by 7% SDS-PAGE and transferred on PVDF membrane. The western blots were probed with mouse monoclonal antibodies specific for CFTR (MM13-4, Millipore) 2 h at room temperature.

[5] = system: cyclooxygenase; details: cited from earlier work
[6] = system: IL-8 promoter; assay: IL-8 promoter luciferase reporter / IL-8 mRNA qPCR, TNFα-stimulated cells; assay type: cell-based; details: 250 μM; TNFα 10 ng/ml; HeLa CFTR wt and CFTR DF508 (FIG. 8B)
Protocol: Cells were transiently transfected by the short IL-8 promoter-firefly luciferase reporter and renilla luciferase reference and inflammation was induced by 10 ng/ml TNFα for 1 h. A. HeLa cells were pre-treated with diluent or different doses of sulindac 1 h before inflammation induction and 4 h after. IL-8 promoter activity in cells treated with sulindac+TNFα was expressed in percent of diluent+TNFα. B. After treatment, HeLa Ctr cells were lysed with TRIzol (Invitrogen). Total RNA was extracted, and 1 μg of total RNA was reverse transcribed with a reverse transcription kit. IL-8 mRNA expression was quantified by real-time quantitative PCR (qPCR). The comparative threshold cycle (CT) method was used for relative quantification of PCR products after IL-8 was normalised to TBP (ΔCt=CtIL-8−CtTBP). […] C After treatment, IL-8 in supernatant was measured by ELISA. The IL-8 stimulation of cells treated with test drug +TNFα were expressed as fold compared to drug −TNFα. […]
as §1

In the case of CC(C)Cc1ccc(C(C)C(=O)O)cc1 (stereo not drawn) [ibuprofen], the “transcriptional activity of NF-κB” value ([1]; BEAS-2B and HeLa cells with wt or deltaF508-CFTR (FIGS. 1A, B)) is listed as “inhibits transcriptional activity of NF-κB similar to ibuprofen”, the “transcriptional activity of NF-κB” value [2] is listed as “inhibits the transcriptional activity of NF-κB” and the IL-8 production [3] is listed as “not accompanied by a decreased of IL-8 production”. For the same compound, the “Ratio CFTR C/C + B (%)” value ([4]; HeLa CFTR WT, Ctr. 65.1) was 80.6% and the “mature form of CFTR (Western blot)” value ([4]; WT-CFTR HeLa cells) was “significant increase of mature form of CFTR”.
In the case of CSc1ccc(/C=C2/C(C)=C(CC(=O)O)c3cc(F)ccc32)cc1 [sulindac sulfide], the inhibition of cyclooxygenase [5] is listed as “inhibits cyclooxygenase activity”.
In the case of C=S(C)(=O)c1ccc(/C=C2/C(C)=C(CC(=O)O)c3cc(F)ccc32)cc1 (stereo not drawn) [sulindac sulfone], the NF-κB transcriptional activity ([1]; 250 μM, HeLa CFTR wt and CFTR DF508 (FIG. 8A)) is given as “inhibits the transcriptional activity of NF-κB”, the IL-8 promoter activity [6] is given as “at least as effective as sulindac; also recorded: inhibits” and the inhibition of cyclooxygenase [5] is given as “inactif on COX; also recorded: does not inhibit cyclooxygenase”.
